Test results published in PubChem BioAssay (NCI).
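Exposure lasted 48 hours, with cells grown in 96-well plates and compounds tested at five concentrations. Abbreviation: GI50, concentration required for 50% inhibition of growth. TGI: concentration producing complete growth inhibition.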

Columns and labels:
Assay in all cases: DTP human tumour cell line panel, 48 h
[1] = system: 786-0 renal
[2] = system: A549 NSCLC
[3] = system: ACHN renal
[4] = system: BT-549 breast
[5] = system: CAKI-1 renal
[6] = system: CCRF-CEM leukemia
[7] = system: COLO 205 colon
[8] = system: DU-145 prostate
[9] = system: EKVX NSCLC
[10] = system: HCC-2998 colon
[11] = system: HCT-116 colon
[12] = system: HCT-15 colon
[13] = system: HOP-62 NSCLC
[14] = system: HT29 colon
[15] = system: IGROV1 ovarian
[16] = system: K-562 leukemia
[17] = system: KM12 colon
[18] = system: LOX IMVI melanoma
[19] = system: M14 melanoma
[20] = system: MCF7 breast
[21] = system: MDA-MB-231 breast
[22] = system: MDA-MB-435
[23] = system: MDA-N
[24] = system: MOLT-4 leukemia
[25] = system: NCI-H226 lung
[26] = system: NCI-H23 lung
[27] = system: NCI-H460 lung
[28] = system: NCI-H522 lung
[29] = system: NCI/ADR-RES ovarian
[30] = system: OVCAR-3 ovarian
[31] = system: OVCAR-4 ovarian
[32] = system: OVCAR-5 ovarian
[33] = system: OVCAR-8 ovarian
[34] = system: PC-3 prostate
[35] = system: RXF 393 renal
[36] = system: SF-268 CNS
[37] = system: SF-295 CNS
[38] = system: SK-MEL-2 melanoma
[39] = system: SK-MEL-28 melanoma
[40] = system: SK-MEL-5 melanoma
[41] = system: SK-OV-3 ovarian
[42] = system: SN12C renal
[43] = system: SNB-19 CNS
[44] = system: SNB-75 CNS
[45] = system: SR leukemia
[46] = system: SW-620 colon
[47] = system: T-47D breast
[48] = system: TK-10 renal
[49] = system: U251 CNS
[50] = system: UACC-257 melanoma
[51] = system: UACC-62 melanoma
[52] = system: UO-31 renal
[53] = system: A498 renal
[54] = system: HL-60(TB) leukemia
[55] = system: HOP-92 NSCLC
[56] = system: HS 578T breast
[57] = system: MALME-3M melanoma
[58] = system: RPMI-8226 leukemia
[59] = system: SF-539 CNS

## CC1(C)O[C@@H](CP(c2cccc3ccccc23)c2cccc3ccccc23)[C@H](CP(c2cccc3ccccc23)c2cccc3ccccc23)O1
[1]
  TGI: > 100 µM
[2]
  TGI: > 100 µM
[3]
  TGI: > 100 µM
[4]
  TGI: > 100 µM
[5]
  TGI: > 100 µM
[6]
  TGI: > 100 µM
[7]
  TGI: > 100 µM
[8]
  TGI: > 100 µM
[9]
  TGI: > 100 µM
[10]
  TGI: > 100 µM
[11]
  TGI: > 100 µM
[12]
  TGI: > 100 µM
[13]
  TGI: > 100 µM
[14]
  TGI: > 100 µM
[15]
  TGI: > 100 µM
[16]
  TGI: > 100 µM
[17]
  TGI: > 100 µM
[18]
  TGI: > 100 µM
[19]
  TGI: > 100 µM
[20]
  TGI: > 100 µM
[21]
  TGI: > 100 µM
[22]
  TGI: > 100 µM
[23]
  TGI: > 100 µM
[24]
  TGI: > 100 µM
[25]
  TGI: > 100 µM
[26]
  TGI: > 100 µM
[27]
  TGI: > 100 µM
[28]
  TGI: > 100 µM
[29]
  TGI: > 100 µM
[30]
  TGI: > 100 µM
[31]
  TGI: > 100 µM
[32]
  TGI: > 100 µM
[33]
  TGI: > 100 µM
[34]
  TGI: > 100 µM
[35]
  TGI: > 100 µM
[36]
  TGI: > 100 µM
[37]
  TGI: > 100 µM
[38]
  TGI: > 100 µM
[39]
  TGI: > 100 µM
[40]
  TGI: > 100 µM
[41]
  TGI: > 100 µM
[42]
  TGI: > 100 µM
[43]
  TGI: > 100 µM
[44]
  TGI: > 100 µM
[45]
  TGI: > 100 µM
[46]
  TGI: > 100 µM
[47]
  TGI: > 100 µM
[48]
  TGI: > 100 µM
[49]
  TGI: > 100 µM
[50]
  TGI: > 100 µM
[51]
  TGI: > 100 µM
[52]
  TGI: > 100 µM

## C[C@H]1CC2=CC(=O)CC[C@]2(C)[C@H]2CC[C@@]3(C)[C@@H](CC[C@]3(C)O)[C@H]12
[1]
  GI50: 42.5 µM
  TGI: > 100 µM
[53]
  GI50: 28.2 µM
  TGI: > 82.8 µM
[2]
  GI50: 31.9 µM
  TGI: > 100 µM
[3]
  GI50: 27.6 µM
  TGI: > 100 µM
[4]
  GI50: 24.7 µM
  TGI: 71.9 µM
[5]
  GI50: 24 µM
  TGI: 77.2 µM
[6]
  GI50: 12.1 µM
  TGI: 53.7 µM
[7]
  GI50: 15.8 µM
  TGI: 36.1 µM
[8]
  GI50: 45.7 µM
  TGI: > 96.3 µM
[9]
  GI50: 11.3 µM
  TGI: > 100 µM
[10]
  GI50: 43.8 µM
  TGI: > 100 µM
[11]
  GI50: 31.2 µM
  TGI: > 95.2 µM
[12]
  GI50: 28.2 µM
  TGI: > 100 µM
[54]
  GI50: 12.9 µM
  TGI: 36.8 µM
[13]
  GI50: 33.5 µM
  TGI: > 76.1 µM
[55]
  GI50: 8.66 µM
  TGI: 44.3 µM
[56]
  GI50: 30.7 µM
  TGI: > 89 µM
[14]
  GI50: 44.7 µM
  TGI: > 100 µM
[15]
  GI50: 27.3 µM
  TGI: > 73.3 µM
[16]
  GI50: 24.7 µM
  TGI: > 88.1 µM
[17]
  GI50: 27.5 µM
  TGI: > 75.4 µM
[18]
  GI50: 29.2 µM
  TGI: > 100 µM
[19]
  GI50: 27.2 µM
  TGI: > 78.9 µM
[57]
  GI50: 26 µM
  TGI: > 92.4 µM
[20]
  GI50: 24.9 µM
  TGI: > 76.7 µM
[21]
  GI50: 35 µM
  TGI: > 100 µM
[22]
  GI50: 29.3 µM
  TGI: > 88 µM
[24]
  GI50: 19.3 µM
  TGI: 50.6 µM
[25]
  GI50: 30 µM
  TGI: > 100 µM
[26]
  GI50: 38.2 µM
  TGI: > 100 µM
[27]
  GI50: 30 µM
  TGI: > 100 µM
[28]
  GI50: 28.4 µM
  TGI: 75.5 µM
[29]
  GI50: 28.7 µM
  TGI: > 86.5 µM
[30]
  GI50: 33.9 µM
  TGI: > 91.8 µM
[31]
  GI50: 38 µM
  TGI: > 100 µM
[32]
  GI50: 55.9 µM
  TGI: > 100 µM
[33]
  GI50: 34 µM
  TGI: > 100 µM
[34]
  GI50: 8.65 µM
  TGI: 99.7 µM
[58]
  GI50: 7.58 µM
  TGI: 38 µM
[35]
  GI50: 24.8 µM
  TGI: 76.9 µM
[36]
  GI50: 33.3 µM
  TGI: > 100 µM
[37]
  GI50: 21.4 µM
  TGI: 62.5 µM
[59]
  GI50: 32.5 µM
  TGI: > 100 µM
[38]
  GI50: 15.4 µM
  TGI: 37.4 µM
[39]
  GI50: 29.3 µM
  TGI: > 85.2 µM
[40]
  GI50: 14.8 µM
  TGI: 33.3 µM
[41]
  GI50: 39.4 µM
  TGI: > 100 µM
[42]
  GI50: 41.6 µM
  TGI: > 100 µM
[43]
  GI50: 43.3 µM
  TGI: > 100 µM
[44]
  GI50: 40.2 µM
  TGI: > 100 µM
[45]
  GI50: 21.7 µM
  TGI: 55.5 µM
[46]
  GI50: 35.8 µM
  TGI: > 100 µM
[47]
  GI50: 22.5 µM
  TGI: 70.3 µM
[48]
  GI50: 31.5 µM
  TGI: 97.5 µM
[49]
  GI50: 31 µM
  TGI: > 100 µM
[50]
  GI50: 35.4 µM
  TGI: > 94.1 µM
[51]
  GI50: 22.2 µM
  TGI: > 67 µM
[52]
  GI50: 20.6 µM
  TGI: > 78.5 µM

## C[n+]1c(-c2ccc(/C=N/Nc3ccnc(N/N=C/c4ccc(-c5cn6ccccc6[n+]5C)cc4)n3)cc2)cn2ccccc21
[1]
  TGI: > 100 µM
[2]
  TGI: > 100 µM
[3]
  TGI: 54.4 µM
[7]
  TGI: > 100 µM
[9]
  TGI: > 100 µM
[10]
  TGI: > 100 µM
[11]
  TGI: > 100 µM
[12]
  TGI: > 100 µM
[54]
  TGI: 65.7 µM
[13]
  TGI: > 100 µM
[56]
  TGI: 93.1 µM
[14]
  TGI: > 100 µM
[15]
  TGI: > 100 µM
[17]
  TGI: > 100 µM
[19]
  TGI: > 100 µM
[21]
  TGI: > 100 µM
[23]
  TGI: > 100 µM
[24]
  TGI: > 100 µM
[27]
  TGI: > 100 µM
[28]
  TGI: > 100 µM
[29]
  TGI: > 100 µM
[31]
  TGI: > 100 µM
[32]
  TGI: > 100 µM
[33]
  TGI: > 100 µM
[34]
  TGI: > 100 µM
[58]
  TGI: 73.3 µM
[36]
  TGI: > 100 µM
[37]
  TGI: 79.6 µM
[59]
  TGI: 40.1 µM
[39]
  TGI: 95.8 µM
[40]
  TGI: > 100 µM
[41]
  TGI: > 100 µM
[42]
  TGI: > 100 µM
[43]
  TGI: > 100 µM
[44]
  TGI: > 100 µM
[45]
  TGI: > 100 µM
[46]
  TGI: > 100 µM
[47]
  TGI: > 100 µM
[48]
  TGI: > 100 µM
[50]
  TGI: > 100 µM
[52]
  TGI: 45.4 µM
